Experimental data from patent US6656709B1, “Methods of increasing the production of cobalamins using cob gene expression” (priority 1990, dated 2003).

What was measured:
[1] = system: crude extract of strain SC510 Rif^r; assay: Enzymatic chelation with cobalt in crude extract of strain SC510 Rif^r; type: biochemical, Pseudomonas denitrificans; conditions: 7 mM ATP, 200 μM CoCl2
Description: A crude extract of strain SC510 Rif^r is obtained by sonication of wet cells (10 g) in 0.2 M Tris-HCl buffer pH 8.0 (20 ml), followed by removal of the cell debris by centrifugation for 1 h at 50,000×g. Proteins (1000 mg) of this extract are incubated for 1 h at 30° C. with carbon-14-labelled hydrogenobyrinic acid diamide (32 nmol; 50 μCi/μmol) in 0.2 M Tris-HCl buffer pH 8.0 (40 ml) containing 7 mM ATP and 200 μM CoCl2. The reaction is stopped by adding 1 M KH2PO4 (7.5 ml) and 0.3 M KCN (6 ml), followed by heating for 10 min at 80° C. […] To confirm that the product is indeed cobyrinic acid a,c-diamide, the product is purified by HPLC and then esterified in methanol containing 5% of sulphuric acid (18 h, 20° C.). […] It should be noted that, under similar incubation conditions in which the radioactive labelling is introduced, not into the hydrogenobyrinic acid a,c-diamide, but into the cobalt (using cobalt-57), cobalt-57-labelled cobyrinic acid a,c-diamide is biosynthesised and the same conclusions could be drawn.

[2] = molecular target: Pseudomonas denitrificans SUMT (Sinorhizobium sp, UniProt P21631); conditions: cited from earlier work
Sequence of Pseudomonas denitrificans SUMT (P21631 whole entry): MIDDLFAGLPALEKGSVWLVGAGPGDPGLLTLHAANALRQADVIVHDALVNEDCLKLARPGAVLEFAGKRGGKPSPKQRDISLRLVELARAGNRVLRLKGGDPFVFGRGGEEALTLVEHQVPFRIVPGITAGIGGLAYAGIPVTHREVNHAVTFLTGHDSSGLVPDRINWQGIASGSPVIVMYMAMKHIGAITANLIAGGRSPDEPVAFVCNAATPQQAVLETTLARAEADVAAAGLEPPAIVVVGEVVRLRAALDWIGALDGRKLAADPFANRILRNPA

[3] = molecular target: T1, Methanobacterium ivanovii SUMT (Methanobacterium ivanovii, UniProt P29564); assay: Catalytic properties of purified M. ivanovii SUMT; type: biochemical
T1 construct: endogenous in cells; host or cells: Methanobacterium ivanovii DSM2611 (enzyme purified to homogeneity from the natural organism)
T1 sequence (P29564 2-231 limits assumed): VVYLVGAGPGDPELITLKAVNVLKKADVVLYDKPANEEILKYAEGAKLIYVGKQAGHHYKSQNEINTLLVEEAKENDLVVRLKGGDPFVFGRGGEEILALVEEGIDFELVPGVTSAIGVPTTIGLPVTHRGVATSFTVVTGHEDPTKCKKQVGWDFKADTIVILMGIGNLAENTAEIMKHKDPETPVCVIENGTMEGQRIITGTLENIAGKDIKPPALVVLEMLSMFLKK
Description: Methanobacterium ivanovii strain DSM2611 is cultured as described (Souillard et al., 1988). Wet cells (12 g) are obtained. The latter are resuspended in 0.1 M Tris-HCl buffer pH 7.6 (80 ml) containing 5 mM DTT and 1 mM EDTA, and sonicated for 1 h 30 min at 4° C. and then centrifuged for 1 h at 50,000 g. Free tetrapyrrole compounds are then cleared from the extract by passage through a small DEAE-Sephadex A25 column set up in the same buffer. The proteins precipitating at between 55 and 75% ammonium sulphate saturation are solubilised in a 0.1 M Tris-HCl pH 7.5, 0.5 mM DTT, 1.7 M ammonium sulphate buffer and injected onto a Phenyl-Superose HR 10/10 (Pharmacia France/SA) column eluted with a decreasing gradient (1.7 M to 0 M with respect to ammonium sulphate). The active fractions are passed through a Sephadex G-25 column equilibrated with 0.1 M Tris-HCl pH 7.5, 0.5 mM DTT, 25% glycerol buffer (buffer A), then injected onto a Mono Q HR 5/5 (Pharmacia France SA) column equilibrated with buffer A and eluted with a KCl gradient of 0 to 0.3 M; this step is repeated a second time under the same conditions. Gel permeation chromatography of the active fraction of the preceding step on Bio-Sil TSK-250 (BioRad France SA) enables a protein which is homogeneous in SDS-PAGE and in RP-HPLC (C-18 pBondapak) to be obtained. The different steps of purification, with their yield, as well as their purification factor, are described in the table below.
As shown in this table, the total purification factor is more than 4,500. Some properties of the pure enzyme have been studied according to methods already described (Blanche et al., 1989). This enzyme does indeed have SUMT activity, i.e. it does indeed catalyse the SAM-dependant transfer of two methyl groups at C-2 and at C-7 of uro'gen III.
The Vmax of M. ivanovii SUMT was determined. It is 1537 U/mg of proteins. This value is greater than that found for P. denitrificans SUMT, already determined under optimal conditions for the reaction (taking account of its inhibition by uro'gen III), 489 U/mg of proteins (Blanche et al., 1989).

| Compound | substrate for enzymatic chelation with cobalt [1] | concentration above which inhibition by uro'gen III is shown [2] | inhibition by substrate ([3]; at concentrations below 20 μM) | Km ([3]; conditions of Blanche et al., 1989) [µM] |
| --- | --- | --- | --- | --- |
| C/C1=C2N=C(/C=C3\N/C(=C(/C)C4=NC(C)(C5N=C1C(C)(CCC(=O)O)C5CC(=O)O)C(C)(CC(=O)O)C4CCC(=O)O)C(C)(CC(=O)O)C3CCC(=O)O)C(C)(C)C/2CCC(=O)O (stereo not shown) [hydrogenobyrinic acid] | not a substrate |  |  |  |
| uroporphyrinogen III [uro'gen III] |  | above 2 μM | does not show inhibition by substrate | 0.052 |
